Laboratory results published in US10717716B2, “1,3,4-oxadiazole derivative compounds as histone deacetylase 6 inhibitor, and the pharmaceutical composition comprising the same” (Chong Kun Dang Pharmaceutical Corp., priority 2015, dated 2020).

Assays:
human recombinant HDAC1 = target: T1, human recombinant HDAC1 (Homo sapiens, UniProt Q13547); test: HDAC1 enzyme activity inhibition assay (HDAC Fluorimetric Drug Discovery Kit); format: biochemical; conditions: human recombinant HDAC1, Fluor de Lys substrate 10 μM, 30° C. 60 minutes
T1 construct: purchased Enzo Life Science BML-SE456
Outline: (§1)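 Human recombinant HDAC1 or HDAC6 (0.3 μg) reacted with 10 μM Fluor de Lys-SIRT1 substrate and 5-fold compound dilutions for 60 min at 30 °C. Developer II added for 30 min, fluorescence read at Ex 360/Em 460; IC50 calculated from the readings.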

human recombinant HDAC6 = target: T2, human recombinant HDAC6 (Homo sapiens, UniProt Q9UBN7); test: HDAC6 enzyme activity inhibition assay (HDAC Fluorimetric Drug Discovery Kit); format: biochemical; conditions: for HDAC6 selectivity (fold): HDAC6 over HDAC1; for IC50: human recombinant HDAC6, same protocol as HDAC1, read-out: HDAC6
T2 construct: purchased Calbiochem 382180
T2 sequence (Q9UBN7 1-1215): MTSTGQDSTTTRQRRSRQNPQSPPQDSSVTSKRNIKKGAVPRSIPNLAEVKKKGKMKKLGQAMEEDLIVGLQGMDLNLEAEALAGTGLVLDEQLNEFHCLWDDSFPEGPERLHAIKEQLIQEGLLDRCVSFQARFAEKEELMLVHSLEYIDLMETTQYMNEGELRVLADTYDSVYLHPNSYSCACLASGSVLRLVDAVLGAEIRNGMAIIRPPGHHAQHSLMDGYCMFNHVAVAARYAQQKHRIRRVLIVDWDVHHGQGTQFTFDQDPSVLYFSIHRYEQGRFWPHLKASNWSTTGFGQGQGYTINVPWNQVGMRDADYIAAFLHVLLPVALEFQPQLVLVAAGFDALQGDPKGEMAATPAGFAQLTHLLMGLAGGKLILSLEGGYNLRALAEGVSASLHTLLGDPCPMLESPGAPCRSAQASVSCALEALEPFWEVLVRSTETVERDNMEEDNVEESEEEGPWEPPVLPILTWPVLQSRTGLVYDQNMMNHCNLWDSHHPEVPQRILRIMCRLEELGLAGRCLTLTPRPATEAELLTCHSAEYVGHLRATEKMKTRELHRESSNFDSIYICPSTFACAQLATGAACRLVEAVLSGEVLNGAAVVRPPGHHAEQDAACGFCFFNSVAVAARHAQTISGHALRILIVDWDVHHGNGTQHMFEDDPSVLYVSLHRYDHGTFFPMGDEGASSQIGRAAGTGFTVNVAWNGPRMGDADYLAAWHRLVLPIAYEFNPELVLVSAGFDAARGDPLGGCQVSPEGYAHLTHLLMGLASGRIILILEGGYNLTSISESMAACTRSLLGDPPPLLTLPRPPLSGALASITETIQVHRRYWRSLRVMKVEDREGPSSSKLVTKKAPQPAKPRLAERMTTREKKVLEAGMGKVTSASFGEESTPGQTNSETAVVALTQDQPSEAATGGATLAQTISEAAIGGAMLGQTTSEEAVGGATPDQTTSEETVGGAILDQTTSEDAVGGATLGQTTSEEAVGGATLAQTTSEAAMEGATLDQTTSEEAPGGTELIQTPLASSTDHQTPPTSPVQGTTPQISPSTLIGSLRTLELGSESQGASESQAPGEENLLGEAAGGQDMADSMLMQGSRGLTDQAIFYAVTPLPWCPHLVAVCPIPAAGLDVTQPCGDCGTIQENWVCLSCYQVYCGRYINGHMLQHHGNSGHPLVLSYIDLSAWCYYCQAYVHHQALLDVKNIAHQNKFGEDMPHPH
Outline: as §1

T1 sequence (Q13547 whole entry): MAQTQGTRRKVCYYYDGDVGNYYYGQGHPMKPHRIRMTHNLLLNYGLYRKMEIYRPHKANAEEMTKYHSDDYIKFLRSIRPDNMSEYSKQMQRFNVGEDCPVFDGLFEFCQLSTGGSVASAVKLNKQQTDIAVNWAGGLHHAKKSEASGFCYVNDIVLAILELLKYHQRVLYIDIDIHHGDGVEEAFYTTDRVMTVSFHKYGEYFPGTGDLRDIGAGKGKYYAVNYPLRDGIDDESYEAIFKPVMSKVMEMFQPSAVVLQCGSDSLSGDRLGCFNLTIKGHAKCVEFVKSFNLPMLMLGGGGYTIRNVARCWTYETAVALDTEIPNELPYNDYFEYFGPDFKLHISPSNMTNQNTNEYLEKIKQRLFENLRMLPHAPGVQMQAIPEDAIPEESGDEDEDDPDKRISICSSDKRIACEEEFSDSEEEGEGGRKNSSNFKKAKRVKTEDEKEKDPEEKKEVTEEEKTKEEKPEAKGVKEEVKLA

SMILES | IC50 (human recombinant HDAC1) | HDAC6 selectivity (fold) (human recombinant HDAC6) | IC50 (human recombinant HDAC6)
O=C(N1CCS(=O)(=O)CC1)N(Cc1ccc(-c2nnc(C(F)F)o2)cn1)c1ccc(F)cc1 [Compound 21829, N-((5-(5-(difluoromethyl)-1,3,4-oxadiazol-2-yl)pyridin-2-yl)methyl)-N-(4-fluorophenyl)thiomorpholine-4-carboxamide 1,1-dioxide] | 47 µM | 1542 fold | 0.031 µM
O=C(N1CCS(=O)(=O)CC1)N(Cc1ccc(-c2nnc(C(F)F)o2)cn1)c1cccc(F)c1 [Compound 21830, N-((5-(5-(difluoromethyl)-1,3,4-oxadiazol-2-yl)pyridin-2-yl)methyl)-N-(3-fluorophenyl)thiomorpholine-4-carboxamide 1,1-dioxide] | 40.9 µM | 1298 fold | 0.032 µM
O=C(N1CCS(=O)(=O)CC1)N(Cc1ccc(-c2nnc(C(F)F)o2)cn1)c1ccc(Cl)cc1 [Compound 21831, N-(4-chlorophenyl)-N-((5-(5-(difluoromethyl)-1,3,4-oxadiazol-2-yl)pyridin-2-yl)methyl)thiomorpholine-4-carboxamide 1,1-dioxide] | 64.4 µM | 1538 fold | 0.042 µM
O=C(N1CCOCC1)N(Cc1ccc(-c2nnc(C(F)F)o2)cn1)c1ccc(F)cc1 [Compound 21839, N-((5-(5-(difluoromethyl)-1,3,4-oxadiazol-2-yl)pyridin-2-yl)methyl)-N-(4-fluorophenyl) morpholine-4-carboxamide] | 56.7 µM | 1689 fold | 0.034 µM
O=C(N1CCOCC1)N(Cc1ccc(-c2nnc(C(F)(F)F)o2)cn1)c1cccc(F)c1 [Compound 21844, N-(3-fluorophenyl)-N-((5-(5-(trifluoromethyl)-1,3,4-oxadiazol-2-yl)pyridin-2-yl)methyl) morpholine-4-carboxamide] | 32.3 µM | 404 fold | 0.08 µM
O=C(N1CCOCC1)N(Cc1ccc(-c2nnc(C(F)F)o2)cc1F)c1cccc(F)c1 [Compound 21845, N-(4-(5-(difluoromethyl)-1,3,4-oxadiazol-2-yl)-2-fluorobenzyl)-N-(3-fluorophenyl)morpholine-4-carboxamide] | 62.3 µM | 1919 fold | 0.032 µM

Continued by falling IC50 (human recombinant HDAC1), values first:

IC50 (human recombinant HDAC1) | HDAC6 selectivity (fold) (human recombinant HDAC6) | IC50 (human recombinant HDAC6) | SMILES
31.9 µM | 170 fold | 0.188 µM | O=C(N1CCOCC1)N(Cc1ccc(-c2nnc(C(F)(F)F)o2)cn1)c1ccc(F)cc1 [Compound 21840, N-(4-fluorophenyl)-N-((5-(5-(trifluoromethyl)-1,3,4-oxadiazol-2-yl)pyridin-2-yl)methyl) morpholine-4-carboxamide]
25.2 µM | 135 fold | 0.187 µM | O=C(N1CCOCC1)N(Cc1ccc(-c2nnc(C(F)(F)F)o2)cc1F)c1ccc(F)cc1 [Compound 21842, N-(2-fluoro-4-(5-(trifluoromethyl)-1,3,4-oxadiazol-2-yl)benzyl)-N-(4-fluorophenyl)morpholine-4-carboxamide]
20.8 µM | 370 fold | 0.056 µM | O=C(N1CCS(=O)(=O)CC1)N(Cc1ccc(-c2nnc(C(F)F)o2)cn1)c1ccc(-c2ccncc2)cc1 [Compound 21823, N-((5-(5-(difluoromethyl)-1,3,4-oxadiazol-2-yl)pyridin-2-yl)methyl)-N-(4-(pyridin-4-yl)phenyl)thiomorpholine-4-carboxamide 1,1-dioxide]
17.7 µM | 563 fold | 0.031 µM | O=C(N1CCS(=O)(=O)CC1)N(Cc1ccc(-c2nnc(C(F)F)o2)cn1)c1ccc(-c2cccnc2)cc1 [Compound 21824, N-((5-(5-(difluoromethyl)-1,3,4-oxadiazol-2-yl)pyridin-2-yl)methyl)-N-(4-(pyridin-3-yl)phenyl)thiomorpholine-4-carboxamide 1,1-dioxide]
